Reference: patent US9669029B2, “Heteroaromatic phenylimidazole derivatives as PDE10A enzyme inhibitors” (H. Lundbeck A/S, priority 2009, dated 2017)

Assays:
PDE10A = PDE10A (Homo sapiens (Human), UniProt Q9Y233); test: PDE10A inhibition assay; type: biochemical
Protocol: Active PDE10A enzyme is prepared in a number of ways for use in PDE assays (Loughney, K. et al. Gene 1999, 234, 109-117; Fujishige, K. et al. Eur J Biochem. 1999, 266, 1118-1127 and Soderling, S. et al. Proc. Natl. Acad. Sci. 1999, 96, 7071-7076). PDE10A can be expressed as full-length proteins or as truncated proteins, as long as they express the catalytic domain. PDE10A can be prepared in different cell types, for example insect cells or E. coli. […]
A PDE10A assay may for example, be performed as follows: The assay is performed in 60 uL samples containing a fixed amount of the relevant PDE enzyme (sufficient to convert 20-25% of the cyclic nucleotide substrate), a buffer (50 mM HEPES7.6; 10 mM MgCl2; 0.02% Tween20), 0.1 mg/ml BSA, 225 pCi of ^3H-labelled cyclic nucleotide substrate, tritium labeled cAMP to a final concentration of 5 nM and varying amounts of inhibitors. […] The beads are allowed to settle for one hr in the dark before the plates are counted in a Wallac 1450 Microbeta counter. The measured signal can be converted to activity relative to an uninhibited control (100%) and IC50 values can be calculated using the Xlfit extension to EXCEL.

rats = details: cited from earlier work

Sequence of PDE10A (Q9Y233 716-1055): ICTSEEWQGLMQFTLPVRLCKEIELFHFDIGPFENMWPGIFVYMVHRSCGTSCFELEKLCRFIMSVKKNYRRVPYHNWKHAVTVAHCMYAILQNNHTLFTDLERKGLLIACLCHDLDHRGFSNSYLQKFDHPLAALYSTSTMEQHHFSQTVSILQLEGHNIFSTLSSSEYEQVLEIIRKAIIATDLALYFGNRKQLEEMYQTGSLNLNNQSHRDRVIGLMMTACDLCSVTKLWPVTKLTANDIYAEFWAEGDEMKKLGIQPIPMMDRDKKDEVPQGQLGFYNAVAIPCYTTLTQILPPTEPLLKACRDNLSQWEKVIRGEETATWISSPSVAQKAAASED

SMILES | IC50 (PDE10A) [nM] | catalepsy on its own (rats; papaverine alone) | effect on the cataleptic effect of the D2 receptor antagonist haloperidol (rats; with haloperidol)
COc1cccn2nc(/C=C/c3nc(-c4ccc(C)o4)cn3C)nc12 [8-Methoxy-2-{(E)-2-[1-methyl-4-(5-methyl-furan-2-yl)-1H-imidazol-2-yl]-vinyl}-[1,2,4]triazolo[1,5-a]pyridine] | 140 | – | –
Cc1cccn2nc(CCc3nc(-c4cccnc4)cn3C)nc12 [8-Methyl-2-[2-(1-methyl-4-pyridin-3-yl-1H-imidazol-2-yl)-ethyl]-[1,2,4]triazolo[1,5-a]pyridine] | 75 | – | –
COc1ccc(Cc2nccc3cc(OC)c(OC)cc23)cc1OC [Papaverine, papaverine] | – | did not cause catalepsy | potentiated
